Common to all, as to assay: Antifungal assay, growth inhibition by OD in 96 well plates
Common to all, as to assay type: cell-based
What all share (settings): 5 mg/ml sophorolipid solution, 48 hours at 30° C., OD at 400 nm vs control wells

For test [1], the system named is Candida albicans. How it is done:
(§1) Sophorolipid solution was prepared by adding 15 mg of compound in 1 ml sucrose solution, pH 8.5.
(§2) All assay were carried out in 96 well plates using Yeast extract-Maltose medium. The logarithmic growing cultures were incubated with 5 mg/ml of sophorolipids for 48 hours at 30° C. Following incubation, the wells were measured for Optical Density (OD) at 400 nm using microtitre plate readers. Percent (%) inhibition of growth was calculated corresponding to the OD in control wells containing no sophorolipid.

The subject of test [2] is Candida antartica. The procedure: as §1, §2
In test [3] the test system is Candida tropicalis. How it is done:
as §1, §2

Take `COC(=O)CCCCCCC/C=C\CCCCCC[C@H](C)O[C@@H]1O[C@H](CO)[C@@H](O)[C@H](O)[C@H]1O[C@@H]1O[C@H](CO)[C@@H](O)[C@H](O)[C@H]1O` (relative stereo) [SL - Methyl Ester, Methyl 17-L-([2′-O-β-D-glucopyranosyl-β-D-glucopyranosyl]-oxy)-cis-9-octadecenoate]: the Inhibition % worked out at 100% in test [1], 71% in test [2] and 100% in test [3].
For `CCOC(=O)CCCCCCC/C=C\CCCCCC[C@H](C)O[C@@H]1O[C@H](CO)[C@@H](O)[C@H](O)[C@H]1O[C@@H]1O[C@H](COC(C)=O)[C@@H](O)[C@H](O)[C@H]1O` (relative stereo) [SL Ethyl Ester Monoacetate, Ethyl 17-L-[(2′-O-β-D-glucopyranosyl-β-D-glucopyranosyl)-oxy]-cis-9-octadecenoate-6″-acetate], the Inhibition % amounted to 100% in test [1], 42% in test [2] and 35% in test [3].
`CCOC(=O)CCCCCCC/C=C\CCCCCCC(C)O[C@@H]1O[C@H](CO)[C@@H](O)[C@H](O)[C@H]1O[C@@H]1O[C@H](CO)[C@@H](O)[C@H](O)[C@H]1O` (relative stereo) [SL - Ethyl Ester, Ethyl 17-L-([2′-O-β-D-glucopyranosyl-β-D-glucopyranosyl]-oxy)-cis-9-octadecenoate]: the Inhibition % in test [1] turned out to be 20%; in test [2], 28%; in test [3] it was 35%.
For `CCOC(=O)CCCCCCC/C=C\CCCCCCC(C)O[C@@H]1O[C@H](COC(C)=O)[C@@H](O)[C@H](O)[C@H]1O[C@@H]1O[C@H](COC(C)=O)[C@@H](O)[C@H](O)[C@H]1O` (relative stereo) [SL Ethyl Ester Diacetate, Ethyl 17-L-([2′-O-β-D-glucopyranosyl-β-D-glucopyranosyl]-oxy)-cis-9-octadecenoate 6′,6″-diacetate], in that order: 100%, 100% and 100%.
`CCCCCCOC(=O)CCCCCCC/C=C\CCCCCCC(C)O[C@@H]1O[C@H](CO)[C@@H](O)[C@H](O)[C@H]1O[C@@H]1O[C@H](CO)[C@@H](O)[C@H](O)[C@H]1O` (relative stereo) [Hexyl SL, Hexyl 17-L-[(2′-O-β-D-glucopyranosyl-β-D-glucopyranosyl)-oxy]-cis-9-octadecenoate]: the Inhibition % in test [1] is listed as 38%; in test [2], 100%; in test [3], 100%.

These data come from patent publication US8796228B2, “Method for neutralizing fungi using sophorolipids and antifungal sophorolipids for use therein” (Synthezyme, LLC, priority 2004, dated 2014).
